Assay results reported in US10179355B2, “Bioremediation enhancing agents and methods of use” (JRW BIOREMEDIATION, LLC, priority 2007, dated 2019).

Assays:
[1] = system: dechlorinating bacteria known to convert PCE to ethene; assay: Set A: Ladder of YM, PCE dechlorination microcosms (kinetics, Relative Rate, paired t-test); type: cell-based, Dehalococcoides and Dehalobacter spp.
Source text: (§1) Certain contaminated materials (or sites) may contain indigenous microbial communities that are sufficient for complete bioremediation of contaminants. For such sites, there is no need to add microbes unless the indigenous microbes are genetically deficient in achieving the desired clean-up goals. For those sites that are microbiologically limited, microorganisms may be added to the contaminated materials (or sites). In one embodiment, the inoculum may be a mixed culture of halo-respiring bacteria that have been enriched to reach an optimal cell density. These mixed cultures of halo-respiring bacteria may be typically obtained from sediment samples from rivers, streams or any waterways. More specifically, the inoculum used in the Examples was originated from a Sangamon River sediment sample (Lodge Park, Piatt County, Ill.) See, e.g., Brennan, R. A., Sanford, R. A. and Werth, C. J. (2006). “Biodegradation of Tetrachloroethene by Chitin Fermentation Products in a Continuous Flow Column System.” Journal of Environ. Engr., June 665-673. This culture had grown for several years on PCE, anaerobic basal salts medium, Wolfe's vitamin solution and various electron donors including lactate (1-2 millimolar (mM)), formate (4 mM) and chitin using the Volatile Interface Transfer Apparatus (VITA) reactor system at the University of Illinois. Brennan, R. A., and Sanford, R. A. (2002). “Continuous steady-state method using Tenax for delivering tetrachloroethene to chlororespiring bacteria.” Appl. Environ. Microbiol., 68(3), 1464-1467. […] Using 16S rRNA gene-specific primers, both Dehalococcoides and Dehalobacter spp. were detected. Quantitative real-time PCR has been used to determine that approximately 1.65×10^7 Dehalococcoides gene copies were present per ml of culture.
(§2) For purpose of this disclosure, each bottle may be started with a certain amount of PCE. At subsequent times each bottle may be sampled for the degradation daughter products of PCE, namely trichloroethene (TCE), cis-dichloroethene (DCE), vinyl chloride (VC) and ethene, etc. Trans-DCE and 1,1-DCE are also daughter products of PCE, but they may not be detectable under the conditions disclosed here.
(§3) The rate of degradation may be determined by calculating the number of pmoles of chloride ions removed from PCE and subsequently from the amounts of the daughter products generated. The calculation may be performed as follows: Chloride (μmoles)=[…]−4×PCE (μmoles)−3×TCE (pmoles)−2×DCE (μmoles)−VC (μmoles)
The alternative chloride calculation is: Chloride (μmoles)=TCE (μmoles)+2×DCE (μmoles)+3×VC (μmoles)+4×Ethene (μmoles)
(§4) Next, the dechlorination rate may be determined for each bottle at each time by dividing the Chloride generated by the time (days). The data may be then normalized to the lactate control by taking the ratio of Chloride Rate (pmoles/day) and the Lactate Control Chloride Rate (pmoles/day). This ratio is called Relative Rate and is dimensionless.
(§5) As shown in the Examples, a paired t-test has been conducted to calculate the probability that the Relative Rate of one group (i.e. with Nutrient) is greater than the other group (i.e. without Nutrient). The null hypothesis is that the underlying means of the two paired groups are equal. The Probability that one group has higher Relative Rates than the other group is shown in various tables in the Examples.
The following components were used in the system for bioremediating contaminated ground water microcosms in Examples 2-8: • 160 milliliter (ml) stoppered serum bottles • 100 ml of anaerobic culture medium, groundwater containing an excess of bioavailable phosphorus and nitrogen at 0.5 mM Phosphate and 1 mM ammonium degassed with a nitrogen sparge • Nominally 1 gram of limestone • 19.54 micromoles (pmoles) Perchloroethene (PCE) • An excess of various electron donors were utilized • 3 ml of inoculum containing dechlorinating bacteria known to convert PCE to ethene. […]

[2] = system: dechlorinating bacteria known to convert PCE to ethene; assay: Set B: Erythorbate ML with and without YM2, PCE dechlorination microcosms (kinetics, Relative Rate); type: cell-based, Dehalococcoides and Dehalobacter spp.
Source text: as §1, §2, §3, §4, §5
The following components were used in the system for bioremediating contaminated ground water microcosms in Examples 2-8: • 160 milliliter (ml) stoppered serum bottles • 100 ml of anaerobic culture medium, groundwater containing an excess of bioavailable phosphorus and nitrogen at 0.5 mM Phosphate and 1 mM ammonium degassed with a nitrogen sparge • Nominally 1 gram of limestone • 19.54 micromoles (pmoles) Perchloroethene (PCE) • An excess of various electron donors were utilized • 3 ml of inoculum containing dechlorinating bacteria known to convert PCE to ethene.
The second set of microcosms used Erythorbate ML as the electron donor at 1020 mg/L initial concentration. […]

CC(O)C(=O)[O-].[Na+] (stereo not drawn) [Lactate Control, sodium lactate]
Average Relative Rate [1]: 1.00 | Cl^− Rate ± s.d. ([1]; 0 days): 0.00 ± 0.00 µmol | Cl^− ± s.d. ([1]; 0 days): 0.00 ± 0.00 µmol | DCE ± s.d. ([1]; 0 days): 0.00 ± 0.00 µmol | Ethene ± s.d. ([1]; 0 days): 0.00 ± 0.00 µmol | PCE ± s.d. ([1]; 0 days): 19.54 ± 0.00 µmol | TCE ± s.d. ([1]; 0 days): 0.00 ± 0.00 µmol | VC ± s.d. ([1]; 0 days): 0.00 ± 0.00 µmol | Cl^− Rate ± s.d. ([1]; 14 days): 2.58 ± 0.17 µmol | Cl^− ± s.d. ([1]; 14 days): 36.18 ± 2.43 µmol | DCE ± s.d. ([1]; 14 days): 0.42 ± 0.03 µmol | Ethene ± s.d. ([1]; 14 days): 0.00 ± 0.00 µmol | PCE ± s.d. ([1]; 14 days): 8.45 ± 0.55 µmol | TCE ± s.d. ([1]; 14 days): 2.00 ± 0.04 µmol | VC ± s.d. ([1]; 14 days): 1.33 ± 0.41 µmol | Cl^− Rate ± s.d. ([1]; 35 days): 1.33 ± 0.15 µmol | Cl^− ± s.d. ([1]; 35 days): 46.47 ± 5.25 µmol | DCE ± s.d. ([1]; 35 days): 1.60 ± 0.82 µmol | Ethene ± s.d. ([1]; 35 days): 0.33 ± 0.29 µmol | PCE ± s.d. ([1]; 35 days): 4.08 ± 0.81 µmol | TCE ± s.d. ([1]; 35 days): 2.77 ± 0.47 µmol | VC ± s.d. ([1]; 35 days): 3.86 ± 2.11 µmol | Cl^− Rate ± s.d. ([1]; 53 days): 1.06 ± 0.06 µmol | Cl^− ± s.d. ([1]; 53 days): 56.17 ± 3.17 µmol | DCE ± s.d. ([1]; 53 days): 5.31 ± 1.00 µmol | Ethene ± s.d. ([1]; 53 days): 0.78 ± 0.79 µmol | PCE ± s.d. ([1]; 53 days): 0.33 ± 0.27 µmol | TCE ± s.d. ([1]; 53 days): 0.52 ± 0.47 µmol | VC ± s.d. ([1]; 53 days): 8.52 ± 6.24 µmol | Relative Rate ([1]; bottle 1, 14 days): 0.92 | Relative Rate ([1]; bottle 1, 35 days): 1.11 | Relative Rate ([1]; bottle 1, 53 days): 0.96 | Relative Rate ([1]; bottle 2, 14 days): 1.02 | Relative Rate ([1]; bottle 2, 35 days): 1.00 | Relative Rate ([1]; bottle 2, 53 days): 1.06 | Relative Rate ([1]; bottle 3, 14 days): 1.05 | Relative Rate ([1]; bottle 3, 35 days): 0.89 | Relative Rate ([1]; bottle 3, 53 days): 0.98 | Cl^− Rate ± s.d. ([2]; 0 days): 0.00 ± 0.00 µmol | Cl^− ± s.d. ([2]; 0 days): 0.00 ± 0.00 µmol | DCE ± s.d. ([2]; 0 days): 0.00 ± 0.00 µmol | Ethene ± s.d. ([2]; 0 days): 0.00 ± 0.00 µmol | PCE ± s.d. ([2]; 0 days): 19.54 ± 0.00 µmol | TCE ± s.d. ([2]; 0 days): 0.00 ± 0.00 µmol | VC ± s.d. ([2]; 0 days): 0.00 ± 0.00 µmol | Cl^− Rate ± s.d. ([2]; 21 days): 1.61 ± 0.14 µmol | Cl^− ± s.d. ([2]; 21 days): 33.88 ± 2.96 µmol | DCE ± s.d. ([2]; 21 days): 0.83 ± 0.07 µmol | Ethene ± s.d. ([2]; 21 days): 0.29 ± 0.08 µmol | PCE ± s.d. ([2]; 21 days): 7.22 ± 0.85 µmol | TCE ± s.d. ([2]; 21 days): 3.15 ± 0.11 µmol | VC ± s.d. ([2]; 21 days): 4.28 ± 0.44 µmol | Cl^− Rate ± s.d. ([2]; 35 days): 1.11 ± 0.12 µmol | Cl^− ± s.d. ([2]; 35 days): 39.00 ± 4.35 µmol | DCE ± s.d. ([2]; 35 days): 2.57 ± 0.34 µmol | Ethene ± s.d. ([2]; 35 days): 0.53 ± 0.12 µmol | PCE ± s.d. ([2]; 35 days): 3.58 ± 0.90 µmol | TCE ± s.d. ([2]; 35 days): 3.77 ± 0.18 µmol | VC ± s.d. ([2]; 35 days): 8.37 ± 0.37 µmol | Cl^− Rate ± s.d. ([2]; 49 days): 1.05 ± 0.04 µmol | Cl^− ± s.d. ([2]; 49 days): 51.67 ± 1.97 µmol | DCE ± s.d. ([2]; 49 days): 1.31 ± 0.95 µmol | Ethene ± s.d. ([2]; 49 days): 1.05 ± 0.22 µmol | PCE ± s.d. ([2]; 49 days): 0.04 ± 0.01 µmol | TCE ± s.d. ([2]; 49 days): 0.10 ± 0.03 µmol | VC ± s.d. ([2]; 49 days): 23.41 ± 0.34 µmol
